The text below walks through data of US11998539B2, “Substituted aminoquinolones as DGKalpha inhibitors for immune activation” (Bayer Aktiengesellschaft, priority 2019, dated 2024).

A word on the IC50: it is the concentration at which inhibition is half-maximal.

Chain of DGKα (P23743 other isoform, or with tags, fused parts or gaps): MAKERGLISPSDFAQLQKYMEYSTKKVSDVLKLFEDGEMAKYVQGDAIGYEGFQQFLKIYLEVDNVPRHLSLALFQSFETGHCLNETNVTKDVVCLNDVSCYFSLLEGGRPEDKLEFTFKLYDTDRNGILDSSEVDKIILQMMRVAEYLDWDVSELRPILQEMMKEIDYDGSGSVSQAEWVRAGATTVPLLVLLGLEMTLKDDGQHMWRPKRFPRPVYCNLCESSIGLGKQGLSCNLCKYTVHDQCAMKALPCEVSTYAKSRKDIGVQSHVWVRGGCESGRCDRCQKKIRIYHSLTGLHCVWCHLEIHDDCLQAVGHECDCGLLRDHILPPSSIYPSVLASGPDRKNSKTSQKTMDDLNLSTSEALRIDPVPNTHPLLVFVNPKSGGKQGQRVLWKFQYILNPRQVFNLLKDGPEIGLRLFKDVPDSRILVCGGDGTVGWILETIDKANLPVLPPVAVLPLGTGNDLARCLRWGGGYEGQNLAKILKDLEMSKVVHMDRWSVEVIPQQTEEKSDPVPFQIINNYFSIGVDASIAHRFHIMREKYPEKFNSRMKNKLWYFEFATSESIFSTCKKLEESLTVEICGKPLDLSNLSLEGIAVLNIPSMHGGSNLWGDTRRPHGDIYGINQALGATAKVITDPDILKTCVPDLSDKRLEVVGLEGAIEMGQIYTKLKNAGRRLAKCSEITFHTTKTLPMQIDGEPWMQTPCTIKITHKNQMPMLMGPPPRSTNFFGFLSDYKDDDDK

In the experiment the target is DGKα (Homo sapiens (Human), UniProt P23743). Briefly: Human DGKα kinase activity inhibition assay (ADP-Glo). It counts as biochemical. The note with it: recombinant full-length human DGKα, 55 μM ATP, 7 μM 1,2-dioleoyl-sn-glycerol, read-out: IC50 values of examples in in vitro human DGKa kinase activity inhibition assays. Put shortly:
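Activity was measured as ADP production, detected by luciferase luminescence after removal of unused ATP. The enzyme was baculovirus-expressed full-length human DGKα with a C-terminal FLAG tag. The substrate was 1,2-dioleoyl-sn-glycerol in detergent micelles, and compounds came from 100× DMSO solutions.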
(ADP-Glo turns the ADP formed in a reaction into a luminescent signal.)
Regarding `Cc1ccc2oc(C3CCN(c4c(C#N)c(=O)n(C)c5ccc(C)cc45)CC3)nc2c1` [Example 166, 1,6-dimethyl-4-[4-(5-methyl-1,3-benzoxazol-2-yl)piperidin-1-yl]-2-oxo-1,2-dihydroquinoline-3-carbonitrile], the IC50 stood at 2.2 nM.

`CNC(=O)c1c(N2CCC(c3nc4ccccc4s3)CC2)c2ccccc2n(C)c1=O` [Example 145, 4-[4-(1,3-benzothiazol-2-yl)piperidin-1-yl]-N,1-dimethyl-2-oxo-1,2-dihydroquinoline-3-carboxamide]: the IC50 was determined as 41 nM.

With `COc1ccccc1C1(O)CCN(c2c(C#N)c(=O)n(C)c3ccccc23)CC1` [Example 331, 4-[4-hydroxy-4-(2-methoxyphenyl)piperidin-1-yl]-1-methyl-2-oxo-1,2-dihydroquinoline-3-carbonitrile], the IC50 stood at 861 nM.

Take `Cn1c(=O)c(C(N)=O)c(N2CCC(C)(c3nc4ccccc4o3)CC2)c2ccc(C(F)(F)F)cc21` [Example 306, 4-[4-(1,3-benzoxazol-2-yl)-4-methylpiperidin-1-yl]-1-methyl-2-oxo-7-(trifluoromethyl)-1,2-dihydroquinoline-3-carboxamide]: the IC50 amounted to 4.1 nM.

For the compound `Cn1c(=O)c(C(N)=O)c(N2CCC(F)(c3nc4ccccc4o3)CC2)c2ccccc21` [Example 488, 4-[4-(1,3-benzoxazol-2-yl)-4-fluoropiperidin-1-yl]-1-methyl-2-oxo-1,2-dihydroquinoline-3-carboxamide], the IC50 amounted to 1.6 nM.

Consider `COc1ccc2c(N3CCC(c4nc5ccccc5s4)CC3)c(C#N)c(=O)n(C)c2c1` [Example 240, 4-[4-(1,3-benzothiazol-2-yl)piperidin-1-yl]-7-methoxy-1-methyl-2-oxo-1,2-dihydroquinoline-3-carbonitrile], for which the half-maximal inhibitory concentration (IC50) amounted to 2.5 nM.

Consider `C=C(c1ccc2c(c1)c(N1CCC(c3nc4cc(C)ccc4o3)CC1)c(C#N)c(=O)n2C)C(F)(F)F` [Example 411, 1-methyl-4-[4-(5-methyl-1,3-benzoxazol-2-yl)piperidin-1-yl]-2-oxo-6-(3,3,3-trifluoroprop-1-en-2-yl)-1,2-dihydroquinoline-3-carbonitrile], for which the IC50 was 5.1 nM.

Turning to `Cc1ccc2c(c1)c(N1CCC(c3nc4ccccc4s3)CC1)c(C#N)c(=O)n2C` [Example 174, 4-[4-(1,3-benzothiazol-2-yl)piperidin-1-yl]-1,6-dimethyl-2-oxo-1,2-dihydroquinoline-3-carbonitrile], the IC50 was found to be 1.7 nM.

As to `COc1ccc2c(N3CCC(c4nc5ccccc5o4)CC3)c(C#N)c(=O)n(C)c2c1` [Example 243, 4-[4-(1,3-benzoxazol-2-yl)piperidin-1-yl]-7-methoxy-1-methyl-2-oxo-1,2-dihydroquinoline-3-carbonitrile], the concentration for half-maximal inhibition (IC50) amounted to 3.5 nM.

Turning to `Cc1ccc2oc(C3CCN(c4c(C(N)=O)c(=O)n(C)c5cc(OC6CCOC6)c(C6(C(F)(F)F)CC6)cc45)CC3)nc2c1` (racemic) [Example 518, (rac)-1-methyl-4-[4-(5-methyl-1,3-benzoxazol-2-yl)piperidin-1-yl]-2-oxo-7-[(oxolan-3-yl)oxy]-6-[1-(trifluoromethyl)cyclopropyl]-1,2-dihydroquinoline-3-carboxamide], the IC50 turned out to be 596 nM.

With `Cc1ccccc1-c1nnc(C2CCN(c3c(C(N)=O)c(=O)n(C)c4ccc(Br)cc34)CC2)o1` [Example 525, 6-bromo-1-methyl-4-{4-[5-(2-methylphenyl)-1,3,4-oxadiazol-2-yl]piperidin-1-yl}-2-oxo-1,2-dihydroquinoline-3-carboxamide], the IC50 turned out to be 39 nM.

With `Cn1c(=O)c(C#N)c(N2CCC(c3cnccn3)CC2)c2ccccc21` [Example 150, 1-methyl-2-oxo-4-[4-(pyrazin-2-yl)piperidin-1-yl]-1,2-dihydroquinoline-3-carbonitrile], the concentration for half-maximal inhibition (IC50) is 1530 nM.

For the compound `Cc1ccc2oc(C3CCN(c4c(C#N)c(=O)n(C)c5cc(Cl)ccc45)CC3)nc2c1` [Example 229, 7-chloro-1-methyl-4-[4-(5-methyl-1,3-benzoxazol-2-yl)piperidin-1-yl]-2-oxo-1,2-dihydroquinoline-3-carbonitrile], the IC50 stood at 3 nM.

In the case of `Cc1ccc2oc(C3CCN(c4c(C#N)c(=O)n(C)c5ccc(F)cc45)CC3)nc2c1` [Example 217, 6-fluoro-1-methyl-4-[4-(5-methyl-1,3-benzoxazol-2-yl)piperidin-1-yl]-2-oxo-1,2-dihydroquinoline-3-carbonitrile], the IC50 was 1 nM.

On to `Cn1c(=O)c(C#N)c(N2CCC(c3cccc(C(F)F)c3)CC2)c2ccccc21` [Example 87, 4-{4-[3-(difluoromethyl)phenyl]piperidin-1-yl}-1-methyl-2-oxo-1,2-dihydroquinoline-3-carbonitrile], for which the IC50 was found to be 7.1 nM.

On to `CC(C)c1ccc2oc(C3(C)CCN(c4c(C(N)=O)c(=O)n(C)c5ccccc45)CC3)nc2c1` [Example 103, 1-methyl-4-{4-methyl-4-[5-(propan-2-yl)-1,3-benzoxazol-2-yl]piperidin-1-yl}-2-oxo-1,2-dihydroquinoline-3-carboxamide], for which the IC50 turned out to be 0.6 nM.

As to `Cc1ccc2oc(C3(C)CCN(c4c(C#N)c(=O)n(C)c5ccc(OC6COC6)cc45)CC3)nc2c1` [Example 267, 1-methyl-4-[4-methyl-4-(5-methyl-1,3-benzoxazol-2-yl)piperidin-1-yl]-6-[(oxetan-3-yl)oxy]-2-oxo-1,2-dihydroquinoline-3-carbonitrile], the IC50 amounted to 64 nM.

Take `Cc1ccc2oc(C3CCN(c4c(C#N)c(=O)n(C)c5cc(O)c(Br)cc45)CC3)nc2c1` [Example 422, 6-bromo-7-hydroxy-1-methyl-4-[4-(5-methyl-1,3-benzoxazol-2-yl)piperidin-1-yl]-2-oxo-1,2-dihydroquinoline-3-carbonitrile]: the 50% inhibitory concentration (IC50) was 0.7 nM.

Turning to `Cc1cccc2nc(C3CCN(c4c(C#N)c(=O)n(C)c5ccccc45)CC3)oc12` [Example 15, 1-methyl-4-[4-(7-methyl-1,3-benzoxazol-2-yl)piperidin-1-yl]-2-oxo-1,2-dihydroquinoline-3-carbonitrile], the IC50 turned out to be 11 nM.

`COc1ccc2c(c1)c(N1CCC(c3nc(-c4cccc(C)c4)no3)CC1)c(C#N)c(=O)n2C` [Example 436, 6-methoxy-1-methyl-4-{4-[3-(3-methylphenyl)-1,2,4-oxadiazol-5-yl]piperidin-1-yl}-2-oxo-1,2-dihydroquinoline-3-carbonitrile]: the IC50 was determined as 32 nM.

Consider `COc1ccc2c(c1)c(N1CCC(c3nc(-c4ccccc4C)no3)CC1)c(C(N)=O)c(=O)n2C` [Example 522, 6-methoxy-1-methyl-4-{4-[3-(2-methylphenyl)-1,2,4-oxadiazol-5-yl]piperidin-1-yl}-2-oxo-1,2-dihydroquinoline-3-carboxamide], for which the IC50 was determined as 44 nM.

As for `Cc1ccc2oc(C3(C)CCN(c4c(C#N)c(=O)n(C)c5cc(C6CC(F)(F)C6)ccc45)CC3)nc2c1` [Example 252, 7-(3,3-difluorocyclobutyl)-1-methyl-4-[4-methyl-4-(5-methyl-1,3-benzoxazol-2-yl)piperidin-1-yl]-2-oxo-1,2-dihydroquinoline-3-carbonitrile], the IC50 came out at 13 nM.

As to `Cc1ccc2oc(C3(C)CCN(c4c(C(N)=O)c(=O)n(C)c5ccc(Br)cc45)CC3)nc2c1` [Example 203, 6-bromo-1-methyl-4-[4-methyl-4-(5-methyl-1,3-benzoxazol-2-yl)piperidin-1-yl]-2-oxo-1,2-dihydroquinoline-3-carboxamide], the IC50 stood at 0.9 nM.

In the case of `Cc1ccc2nc(C3(C)CCN(c4c(C#N)c(=O)n(C)c5ccc(Cl)cc45)CC3)oc2c1` [Example 192, 6-chloro-1-methyl-4-[4-methyl-4-(6-methyl-1,3-benzoxazol-2-yl)piperidin-1-yl]-2-oxo-1,2-dihydroquinoline-3-carbonitrile], the concentration for half-maximal inhibition (IC50) came out at 1360 nM.

As for `COc1ccc2c(c1)c(N1CCC(C)(c3nc4cc(C)ccc4o3)CC1)c(C#N)c(=O)n2C` [Example 246, 6-methoxy-1-methyl-4-[4-methyl-4-(5-methyl-1,3-benzoxazol-2-yl)piperidin-1-yl]-2-oxo-1,2-dihydroquinoline-3-carbonitrile], the IC50 was 6.5 nM.

Take `Cn1c(=O)c(C#N)c(N2CCC(c3nc4ccccc4o3)CC2)c2ccc(F)cc21` [Example 236, 4-[4-(1,3-benzoxazol-2-yl)piperidin-1-yl]-7-fluoro-1-methyl-2-oxo-1,2-dihydroquinoline-3-carbonitrile]: the 50% inhibitory concentration (IC50) came out at 4.3 nM.

`Cc1cccc(-c2noc(C3CCN(c4c(C#N)c(=O)n(C)c5ccccc45)CC3)n2)c1` [Example 350, 1-methyl-4-{4-[3-(3-methylphenyl)-1,2,4-oxadiazol-5-yl]piperidin-1-yl}-2-oxo-1,2-dihydroquinoline-3-carbonitrile]: the IC50 is 11 nM.

As for `Cc1ccc2oc(C3(C)CCN(c4c(C(N)=O)c(=O)n(C)c5ccc(N6C[C@H](O)CC6=O)cc45)CC3)nc2c1` [Example 280, 6-[(4R)-4-hydroxy-2-oxopyrrolidin-1-yl]-1-methyl-4-[4-methyl-4-(5-methyl-1,3-benzoxazol-2-yl)piperidin-1-yl]-2-oxo-1,2-dihydroquinoline-3-carboxamide], the IC50 was 4740 nM.

`Cc1ccc2oc(C3(C)CCN(c4c(C(N)=O)c(=O)n(C)c5cc(O)c(Br)cc45)CC3)nc2c1` [Example 512, 6-bromo-7-hydroxy-1-methyl-4-[4-methyl-4-(5-methyl-1,3-benzoxazol-2-yl)piperidin-1-yl]-2-oxo-1,2-dihydroquinoline-3-carboxamide]: the IC50 worked out at 0.8 nM.

On to `Cc1ccc2oc(C3CCN(c4c(C(N)=O)c(=O)n(C)c5cc(OC6COC6)ccc45)CC3)nc2c1` [Example 485, 1-methyl-4-[4-(5-methyl-1,3-benzoxazol-2-yl)piperidin-1-yl]-7-[(oxetan-3-yl)oxy]-2-oxo-1,2-dihydroquinoline-3-carboxamide], for which the half-inhibitory concentration (IC50) amounted to 2 nM.
